Test results published in article PMC9570995, “Design, Synthesis, and Biological Evaluation of Novel Dihydropyridine and Pyridine Analogs as Potent Human Tissue Nonspecific Alkaline Phosphatase Inhibitors with Anticancer Activity: ROS and DNA Damage-Induced Apoptosis” (Molecules, 2022).
Like-named read-outs stand apart in the source and are kept apart here.

How the values were obtained:
[1] = test system: Cervical Cancer (HeLa) Cells; experiment: MTT cell viability assay, HeLa; type: cell-based; conditions: for IC50: unit given, read-out: Cervical Cancer (HeLa) Cells IC50 Values ± SEM
Excerpt: (§1) An MTT assay was used to determine the viability of the cells under examination in the desired medium. The mitochondrial dehydrogenase enzyme of the viable cells has a key role in the conversion of the yellow water-soluble substrate 3-(4,5-dimethylthiazol-2-y1)-2,5 diphenyl tetrazolium bromide (MTT) into a dark blue formazan product that is insoluble in water. The anticancer activity of the novel synthetic derivatives (4a–4k) was investigated through an MTT assay, with small modifications following the already published protocols against cancer cell lines (HeLa and MCF-7), using cisplatin as a reference drug. The cytotoxic effect of the tested compounds at 100 µM concentration was determined and represented as the percent growth inhibition compared with the untreated control cells. The first series comprised dihydropyridines analogous from 4a–4f with various substitution patterns on the phenyl ring. […] It is presumed that the 1-naphthyl containing compound 4c was locked in a configuration that is not favorable for an interaction with amino acid residues.
(§2) The anti-proliferative activity of the synthesized compounds was determined in MCF-7 and HeLa cells by an MTT cell viability assay, as described earlier. Briefly, we seeded 1 × 10^4 cells/well in a sterile 96-well culture microtiter plate and incubated them in a 5% CO2 incubator at 37 °C for 24 h. […] After 24 h, the cells were treated with 0.2 mg/mL of MTT reagent for 4 h. We added 10% acidified SDS (sodium dodecyl sulfate) solubilizing solution in propanol (1:1) to solubilize the formazan crystals. After 30 min at 37 °C, the plate was placed on a gyratory shaker to completely dissolve the formazan crystals. The plate was placed on a microplate reader to measure the optical density at 570 nm. The IC50 values were calculated from three independent experiments as previously reported.

[2] = molecular target: T1, human tissue nonspecific alkaline phosphatase (h-TNAP) (Homo sapiens, UniProt P05186); experiment: Alkaline phosphatase inhibition assay (p-NPP substrate); type: biochemical; conditions: for inhibition at 1000 µM: compounds tested at 1 mM
T1 sequence (P05186 18-524): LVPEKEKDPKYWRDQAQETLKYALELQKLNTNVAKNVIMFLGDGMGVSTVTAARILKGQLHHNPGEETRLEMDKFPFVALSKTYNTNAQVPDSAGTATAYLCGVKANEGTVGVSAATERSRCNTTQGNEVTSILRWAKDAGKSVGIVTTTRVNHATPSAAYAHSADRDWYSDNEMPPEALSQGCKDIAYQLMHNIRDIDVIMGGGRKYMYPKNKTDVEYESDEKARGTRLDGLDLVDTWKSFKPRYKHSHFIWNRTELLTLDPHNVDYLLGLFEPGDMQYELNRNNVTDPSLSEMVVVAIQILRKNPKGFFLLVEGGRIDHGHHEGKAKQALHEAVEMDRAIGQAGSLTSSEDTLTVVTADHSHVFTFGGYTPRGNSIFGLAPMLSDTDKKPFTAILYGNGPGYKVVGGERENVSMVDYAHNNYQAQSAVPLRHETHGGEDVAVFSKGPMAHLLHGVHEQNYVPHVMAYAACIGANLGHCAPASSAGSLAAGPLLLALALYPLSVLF
Protocol: The newly synthesized compounds were tested against human tissue nonspecific alkaline phosphatase (h-TNAP). The compounds were initially tested against the h-TNAP enzymes at 1 mM concentration. The assay buffer (pH 9.5) constituted of 50% glycerol, followed by tris-hydrochloride (50.0 mM), MgCl2 (5.0 mM), and ZnCl2 (0.1 mM) in the solution. The enzyme substrate p-nitrophenyl phosphate (p-NPP) and all the required test compounds were diluted to the required concentration by a dilution buffer method. In a 96-well plate, the assay was started by adding 70 µL of assay buffer followed by 10.0 µL of the test compound (from 1 mM), 10.0 µL of the enzyme (0.5 µL/mL) and then subsequently incubating at 37 °C for 10 min. The reaction was initiated with the addition of 10.0 µL of substrate (5.0 mM p-NPP) into each well and incubated for an additional 30 min.
Percent inhibition was calculated by the formula:% Inhibition = [100 − (abs of test comp/abs of control) × 100]

[3] = test system: Breast Cancer (MCF-7) Cells; experiment: MTT cell viability assay, MCF-7; type: cell-based; conditions: for inhibition at 100 µM / IC50: Homo sapiens; for inhibition at 100 µM: MCF7, 100 µM, 24 h; for IC50: MCF7, unit given, read-out: Breast Cancer (MCF-7) Cells IC50 Values ± SEM
Excerpt: as §1, §2

[4] = Table 2, read-out: Alkaline Phosphatase (h-TNAP) percent inhibition
[5] = percent inhibition of h-TNAP, Table 1 and text, read-out: Inhibitory Potential
[6] = Homo sapiens, HeLa, 100 µM, 24 h
[7] = Table 2, unit given in Table 1, read-out: Alkaline Phosphatase (h-TNAP) IC50
[8] = h-TNAP, assay buffer pH 9.5, Table 1 and text, read-out: IC50 + SEM

Structure (SMILES) | activity against h-TNAP in words [2] | inhibition at 1000 µM [2, 4] | inhibition at 1000 µM [2, 5] | IC50 [2, 7] | IC50 [2, 8] | IC50 ([1]; Homo sapiens, HeLa) | IC50 [3] | Cervical Cancer (HeLa) Cells % Inhibition (at 100 µM) ([1]; 100 µM, 24 h) | IC50 [1] | activity against HeLa in words [1] | inhibition at 100 µM [1, 6] | activity against MCF-7 in words [3] | inhibition at 100 µM [3]
N.N.[Cl][Pt][Cl] [Cisplatin, reference compound] | – | – | – | – | – | – | – | 98.32% | 11.3 ± 0.78 µM | – | – | – | –
CSc1ccc(C2C(C#N)=C(N)N(Cc3ccccc3)C(N)=C2C#N)cc1 [Compound 4a, 2,6-Diamino-1-benzyl-4-(4-(methylthio)phenyl)-1,4-dihydropyridine-3,5-dicarbonitrile] | least activity | 21.1% | 20.9% | – | – | – | – | – | – | least potency | 7.71% | least potency | 37.9%
N#CC1=C(N)N(Cc2ccccc2)C(N)=C(C#N)C1c1cccc2ccccc12 [Compound 4c, 2,6-Diamino-1-benzyl-4-(naphthalen-1-yl)-1,4-dihydropyridine-3,5-dicarbonitrile] | – | 26.2% | 26.2% | – | – | – | – | – | – | inactive | 21.3% | inactive | 23.1%
COc1ccc(C2C(C#N)=C(N)N(Cc3ccccc3)C(N)=C2C#N)c(OC)c1OC [Compound 4e, 2,6-Diamino-1-benzyl-4-(2,3,4-trimethoxyphenyl)-1,4-dihydropyridine-3,5-dicarbonitrile] | – | – | – | 8.8 ± 0.53 µM | 8.8 ± 0.53 µM | 69.47 ± 0.07 µM | – | – | – | – | 60% | – | 5.73%
COc1c(O)cccc1C1C(C#N)=C(N)N(Cc2ccccc2)C(N)=C1C#N [Compound 4f, 2,6-Diamino-1-benzyl-4-(3-hydroxy-2-methoxyphenyl)-1,4-dihydropyridine-3,5-dicarbonitrile] | – | – | – | 2.25 ± 0.16 µM | 2.25 ± 0.16 µM | 57 ± 7.1 µM | 77 ± 8.3 µM | – | – | – | 77.3% | – | 61.7%
CCOc1ccc(-c2c(C#N)c(N)nc(NCCCn3ccnc3)c2C#N)cc1 [Compound 4j, 2-((3-(1H-Imidazol-1-yl)propyl)amino)-6-amino-4-(4-ethoxyphenyl)pyridine-3,5-dicarbonitrile] | – | – | – | 1.22 ± 0.12 µM | 1.22 ± 0.12 µM | 57 ± 1.5 µM | 54 ± 1.7 µM | – | – | – | 77.8% | – | 72.4%

The next lines start with results.

activity against h-TNAP in words [2] | inhibition at 1000 µM [2, 4] | inhibition at 1000 µM [2, 5] | IC50 [2, 7] | IC50 [2, 8] | IC50 ([1]; Homo sapiens, HeLa) | IC50 [3] | Structure (SMILES) | Cervical Cancer (HeLa) Cells % Inhibition (at 100 µM) ([1]; 100 µM, 24 h) | IC50 [1] | activity against HeLa in words [1] | inhibition at 100 µM [1, 6] | activity against MCF-7 in words [3] | inhibition at 100 µM [3]
least activity | 28.3% | 28.3% | – | – | – | – | CC(C)c1ccc(C2C(C#N)=C(N)N(Cc3ccccc3)C(N)=C2C#N)cc1 [Compound 4b, 2,6-Diamino-1-benzyl-4-(4-isopropylphenyl)-1,4-dihydropyridine-3,5-dicarbonitrile] | – | – | least potency | 11% | least potency | 41.8%
– | – | – | 0.49 ± 0.025 µM | 0.49 ± 0.025 µM | 63 ± 4.1 µM | 98 ± 5.7 µM | CCOc1ccc(-c2c(C#N)c(N)nc(NCCc3ccc(S(N)(=O)=O)cc3)c2C#N)cc1 [Compound 4g, 4-(2-((6-Amino-3,5-dicyano-4-(4-ethoxyphenyl)pyridine-2yl)amino)ethyl)benzene sulfonamide] | – | – | – | 67.1% | – | 53.3%
least inhibitory activity | 37.6% | 37.6% | – | – | – | 109.9 ± 1.07 µM | CSc1ccc(-c2c(C#N)c(N)nc(NCCc3ccc(S(N)(=O)=O)cc3)c2C#N)cc1 [Compound 4h, 4-(2-((6-Amino-3,5-dicyano-4-(4-(methylthio)phenyl)pyridin-2-yl)amino)ethyl)benzene sulfonamide] | – | – | – | 38.4% | – | 57.2%
least inhibitory activity | 31.7% | 31.7% | – | – | – | – | CC(C)c1ccc(-c2c(C#N)c(N)nc(NCCc3ccc(S(N)(=O)=O)cc3)c2C#N)cc1 [Compound 4i] | – | – | – | 39.3% | – | 34.6%
comparatively inactive | 36.5% | 36.5% | – | – | 66 ± 1.97 µM | – | CC(C)c1ccc(-c2c(C#N)c(N)nc(NCCCn3ccnc3)c2C#N)cc1 [Compound 4k, 2-((3-(1H-Imidazol-1-yl)propyl)amino)-6-amino-4-(4-(isopropyle)phenyl)pyridine-3,5-dicarbonitrile] | – | – | – | 63.8% | – | 40.1%
– | – | – | – | – | – | 2.81 ± 0.39 µM | COc1cccc2c1C(=O)c1c(O)c3c(c(O)c1C2=O)C[C@@](O)(C(=O)CO)C[C@@H]3O[C@H]1C[C@H](N)[C@H](O)[C@H](C)O1 [Doxorubicin, reference compound] | – | – | – | – | – | 98.9%
